These results are taken from US20210115040A1, “OGA INHIBITOR COMPOUNDS” (Janssen Pharmaceutica NV, priority 2018, published 2021).

In the test the target is T1, OGA (Homo sapiens, UniProt O60502).
T1 construct: HEK293 cells inducible for P301L mutant human Tau (isoform 2N4R) were established at Janssen; endogenous in cells; host or cells: HEK293 cells inducible for P301L mutant human Tau (2N4R)
T1 sequence (O60502 1-916): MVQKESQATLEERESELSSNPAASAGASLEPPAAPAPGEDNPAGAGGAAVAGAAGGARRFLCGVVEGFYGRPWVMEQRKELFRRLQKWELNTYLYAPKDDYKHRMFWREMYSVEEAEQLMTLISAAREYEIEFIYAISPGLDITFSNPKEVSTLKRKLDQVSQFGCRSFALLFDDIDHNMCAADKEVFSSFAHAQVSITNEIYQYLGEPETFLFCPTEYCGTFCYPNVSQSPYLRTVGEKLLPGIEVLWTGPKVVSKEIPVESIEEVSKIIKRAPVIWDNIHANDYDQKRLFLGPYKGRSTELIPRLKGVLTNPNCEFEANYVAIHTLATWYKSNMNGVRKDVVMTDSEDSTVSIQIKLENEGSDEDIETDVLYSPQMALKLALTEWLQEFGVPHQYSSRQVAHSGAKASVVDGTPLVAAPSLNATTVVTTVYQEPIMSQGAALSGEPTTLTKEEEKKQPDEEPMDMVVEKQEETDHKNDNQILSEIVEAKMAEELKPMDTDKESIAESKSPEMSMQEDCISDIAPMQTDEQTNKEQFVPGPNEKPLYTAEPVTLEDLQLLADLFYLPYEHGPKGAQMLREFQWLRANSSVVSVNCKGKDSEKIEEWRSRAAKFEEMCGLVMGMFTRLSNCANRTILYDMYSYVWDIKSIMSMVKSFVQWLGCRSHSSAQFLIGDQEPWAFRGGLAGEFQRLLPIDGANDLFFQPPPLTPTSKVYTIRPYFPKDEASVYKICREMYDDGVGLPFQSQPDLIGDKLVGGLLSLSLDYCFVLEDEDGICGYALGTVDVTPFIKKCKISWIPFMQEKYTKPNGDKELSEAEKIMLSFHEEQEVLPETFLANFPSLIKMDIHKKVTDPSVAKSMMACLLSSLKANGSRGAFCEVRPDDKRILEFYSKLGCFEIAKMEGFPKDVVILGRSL
In words: OGA cellular assay (ICC detection of O-GlcNAcylated proteins in HEK293 cells inducible for P301L mutant human Tau). Type of test: cell-based. The gist of the method:
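HEK293 cells inducible for P301L Tau (2N4R), seeded in low-glucose medium, treated with compound for 6 h at 0.2% DMSO. O-GlcNAc immunostained with CTD110.6 after PFA fixation; 488 nm intensity imaged, Hoechst nuclei counted for toxicity. IC50 by non-linear regression, 200 uM Thiamet G as maximum.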

On to `Cc1cc(C2CCCN(C(C)c3ccc4sc(C)nc4n3)C2)cc(C)n1` (racemic) [Compound 39], for which, for the setting “HEK293, HEK293 cells inducible for P301L mutant human Tau, maximum = Thiamet G 200 uM”, the Emax stood at 79%. Further, the EC50 (HEK293 cells inducible for P301L mutant human Tau, 6 hours incubation, read-out: Cellular hOGA, pEC50 (converted)) is 63.1 nM.
